According to patent US5328909A, “Cyclopropenone derivatives” (Mitsubishi Kasei Corporation, priority 1991, dated 1994):

Molecular target: T1, m-calpain (Rattus norvegicus, UniProt Q07009)
T1 construct: m-calpain was purified from rat brain; from tissue; host or cells: rat brain
T1 sequence (Q07009 20-700 limits assumed): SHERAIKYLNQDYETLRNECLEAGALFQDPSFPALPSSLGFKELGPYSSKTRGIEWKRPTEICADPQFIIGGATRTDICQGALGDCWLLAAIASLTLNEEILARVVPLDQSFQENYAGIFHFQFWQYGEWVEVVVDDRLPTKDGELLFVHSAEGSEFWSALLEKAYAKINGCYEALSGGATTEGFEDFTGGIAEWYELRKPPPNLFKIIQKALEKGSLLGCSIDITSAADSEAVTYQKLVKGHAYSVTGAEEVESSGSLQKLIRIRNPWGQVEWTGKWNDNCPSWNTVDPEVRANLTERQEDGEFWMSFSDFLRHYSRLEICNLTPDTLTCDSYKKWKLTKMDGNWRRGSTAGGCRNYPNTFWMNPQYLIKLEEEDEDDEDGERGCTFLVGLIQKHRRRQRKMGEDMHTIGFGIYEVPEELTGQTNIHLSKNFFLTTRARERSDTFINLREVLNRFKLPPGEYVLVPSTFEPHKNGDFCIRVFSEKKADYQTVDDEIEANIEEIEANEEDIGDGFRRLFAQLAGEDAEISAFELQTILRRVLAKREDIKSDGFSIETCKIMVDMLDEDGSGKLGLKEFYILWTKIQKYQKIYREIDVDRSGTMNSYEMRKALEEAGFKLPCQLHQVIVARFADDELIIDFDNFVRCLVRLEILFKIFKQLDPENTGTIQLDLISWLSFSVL
T1 sequence (Q64537 1-270 partner): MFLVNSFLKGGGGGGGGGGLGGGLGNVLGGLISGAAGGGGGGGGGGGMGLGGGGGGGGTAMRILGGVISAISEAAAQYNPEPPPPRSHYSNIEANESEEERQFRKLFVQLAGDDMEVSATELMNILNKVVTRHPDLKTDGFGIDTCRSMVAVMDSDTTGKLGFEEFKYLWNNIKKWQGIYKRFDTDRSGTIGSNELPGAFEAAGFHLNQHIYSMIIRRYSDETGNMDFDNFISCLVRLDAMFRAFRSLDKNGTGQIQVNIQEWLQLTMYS
Assay: Thiol protease inhibitory activity against m-calpain purified from rat brain
Type: biochemical
Conditions: Table 4; rat brain enzyme; read-out: Inhibitory activity against m-calpain IC50
Description: Inhibitory activity against papain (P-3125, Sigma) and cathepsin B (C-6286, Sigma) was assayed according to the method described in a literature [Biochemical Journal, 201, 189 (1982)]. Capthesin L was purified from rat kidney according to the method in a literature [Journal of Biochemistry, 100, 35 (1986)], and the inhibitory activity against it was assayed in the same manner as described in the above literature for cathepsin B. Further, m-calpain was purified from rat brain according to a known method [Journal of Biological Chemistry, 254, p.3210 (1984)] and the inhibitory activity against it was assayed by a method described in a literature [Journal of Biological Chemistry, 259, 12489 (1984)]. The results are showing in Tables 3 and 4. It is evident from Tables 3 and 4 that the compounds in the present invention have a potent inhibitory activity against thiol proteases such as papain, cathepsin B, cathepsin L, m-calpain or the like.

Row | SMILES | IC50
1 | CC(C)C[C@H](NS(=O)(=O)Cc1ccccc1)C(=O)N[C@@H](C(C)C)[C@H](O)c1c(-c2ccccc2)c1=O [79 (No. 237), 2-[(1R, 2S)-2-((S)-2-benzylsulfonylamino-4-methylvalerylamino)-1-hydroxy-3-methylbutyl]-3-phenylcyclopropenone] | 1.8 µM
2 | CC(C)C[C@H](NS(=O)(=O)c1ccccc1)C(=O)N[C@@H](C(C)C)[C@H](O)c1c(-c2ccccc2)c1=O [81 (No. 239), 2-[(1R, 2S)-1-hydroxy-3-methyl-2-((S)-4-methyl-2-phenylsulfonylaminovalerylamino)butyl]-3-phenylcyclopropenone] | 4.3 µM
3 | CC(C)COC(=O)N[C@@H](CC(C)C)C(=O)N[C@@H](C(C)C)[C@H](O)c1c(-c2ccccc2)c1=O [21 (No. 72), 2-[(1R, 2S)-1-hydroxy-2-((S)-2-isobutoxycarbonylamino-4-methylvalerylamino)-3-methylbutyl]-3-phenylcyclopropenone] | 3 µM
4 | CC(C)COC(=O)N[C@@H](CC(C)C)C(=O)N[C@@H](C(C)C)[C@@H](O)c1c(-c2ccccc2)c1=O [20 (No. 72), 2-[(1S, 2S)-1-hydroxy-2-((S)-2-isobutoxycarbonylamino-4-methylvalerylamino)-3-methylbutyl]-3-phenylcyclopropenone] | 1.3 µM
5 | CC(C)CCC(=O)N[C@@H](CC(C)C)C(=O)N[C@@H](C(C)C)[C@@H](O)c1c(-c2ccccc2)c1=O [37 (No. 114), 2-[(1S, 2S)-1-hydroxy-2-((S)-2-isohexanoylamino-4-methylvalerylamino)-3-methylbutyl]-3-phenylcyclopropenone] | 2.1 µM
6 | COc1ccc(S(=O)(=O)N[C@@H](CC(C)C)C(=O)N[C@@H](C(C)C)[C@@H](O)c2c(-c3ccccc3)c2=O)cc1 [87 (No. 257), 2-[(1S, 2S)-1-hydroxy-2-{(S)-2-(4-methoxyphenylsulfonylamino)-4-methylvalerylamino}-3-methylbutyl]-3-phenylcyclopropenone] | 1 µM
7 | CCCS(=O)(=O)N[C@@H](CC(C)C)C(=O)N[C@@H](C(C)C)[C@@H](O)c1c(-c2ccccc2)c1=O [77 (No. 232), 2-[(1S, 2S)-1-hydroxy-3-methyl-2-((S)-4-methyl-2-propylsulfonylaminovalerylamino)butyl]-3-phenylcyclopropenone] | 0.95 µM

Now from value to compound:

Row | IC50 | SMILES
8 | 2.3 µM | COc1ccccc1OCC(=O)N[C@@H](CC(C)C)C(=O)N[C@@H](C(C)C)[C@@H](O)c1c(-c2ccccc2)c1=O [53 (No. 161)]
9 | 1.1 µM | CC(C)C[C@H](NC(=O)c1ccccc1Cl)C(=O)N[C@@H](C(C)C)[C@@H](O)c1c(-c2ccccc2)c1=O [60 (No. 178), 2-[(1S, 2S)-2-{(S)-2-(2-chlorobenzoylamino)-4-methylvalerylamino}-hydroxy-3-methylbutyl]-3-phenylcyclopropenone]
10 | 1.4 µM | CC(C)C[C@H](NC(=O)c1ccc(Cl)cc1)C(=O)N[C@@H](C(C)C)[C@@H](O)c1c(-c2ccccc2)c1=O [62 (No. 180), 2-[(1S, 2S)-2-{(S)-2-(4-chlorobenzoylamino)-4-methylvalerylamino}-1-hydroxy-3-methylbutyl]-3-phenylcyclopropenone]
11 | 1.6 µM | Cc1ccccc1C(=O)N[C@@H](CC(C)C)C(=O)N[C@@H](C(C)C)[C@@H](O)c1c(-c2ccccc2)c1=O [63 (No. 184), 2-[(1S, 2S)-1-hydroxy-3-methyl-2-{(S)-4-methyl-2-(2-toluoylamino)valerylamino}butyl]-3-phenylcyclopropenone]
12 | 2.2 µM | CC(C)C[C@H](NC(=O)CSc1ccccc1)C(=O)N[C@@H](C(C)C)[C@@H](O)c1c(-c2ccccc2)c1=O [56 (No. 168), 2-[(1S, 2S)-1-hydroxy-3-methyl-2-((S)-4-methyl-2-phenylthioacetylaminovalerylamino}butyl]-3-phenylcyclopropenone]
13 | 3.1 µM | CC(C)C[C@H](NC(=O)c1cccs1)C(=O)N[C@@H](C(C)C)[C@@H](O)c1c(-c2ccccc2)c1=O [68 (No. 200), 2-[(1S, 2S)-1-hydroxy-3-methyl-2-{(S)-4-methyl-2-(2-thenoylamino)valerylamino}butyl]-3-phenylcyclopropenone]
